Experimental data published in patent US11254663B2 (BRISTOL-MYERS SQUIBB COMPANY, priority 2019, dated 2022).

The compounds below were run against FXR (Homo sapiens (Human), UniProt Q96RI1) (assay: transient human FXR/Gal4-luciferase reporter assay). Settings: Gal4-hFXR fusion construct, HEK293 reporter cells; response relative to 8 μM GW-4064.
Sequence of FXR (Q96RI1 262-486): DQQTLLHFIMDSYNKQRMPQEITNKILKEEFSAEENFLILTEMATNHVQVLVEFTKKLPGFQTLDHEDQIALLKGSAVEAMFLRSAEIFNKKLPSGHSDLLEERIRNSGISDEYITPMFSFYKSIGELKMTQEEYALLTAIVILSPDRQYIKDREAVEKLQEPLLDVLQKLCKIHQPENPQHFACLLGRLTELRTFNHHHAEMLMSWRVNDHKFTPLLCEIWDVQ
Assay type: cell-based
Experimental: A Gal4-hFXR fusion construct reporter system was used as the primary assay to characterize compound activity. A construct including 5 copies of the Gal4 promoter response element upstream of a firefly luciferase reporter cDNA was stably expressed in HEK293 cells. This reporter cell line was maintained in Dulbecco's Modified Eagle's medium (DMEM; Gibco) supplemented with 1% penicillin-streptomycin (P/S) solution, 500 μg/mL Zeocin and 10% charcoal/dextran-treated fetal bovine serum (cs-FBS) at 37° C. in a humidified 5% CO2 atmosphere. Another plasmid was constructed in which the human cytomegalovirus promoter in the pcDNA3.1 vector directs the expression of the cDNA encoding a fusion protein comprised of the DNA binding domain from the Gal4 transcription factor fused to the ligand binding domain from human FXR.
The day prior to transfection, the reporter cells in culture are detached from the plate with trypsin and plated into a T75 flask at a sufficient density to achieve approximately 90% confluence the next morning. The transfection reagents are prepared by separately diluting 25 μg of the pcDNA3.1-Gal4-FXR plasmid into 1.87 mL of Opti-MEM (Thermo-Fisher), and 40 μL of Lipofectamine 2000 (Thermo-Fisher) into 1.87 mL of Opti-MEM, and then adding the diluted DNA solution into the diluted Lipofectamine 2000 solution and incubating at room temperature for 15-20 minutes. The mixture is further diluted with 10 mL of a solution comprised of DMEM, 10% cs-FBS, and 1% P/S immediately prior to transferring to the cells. The maintenance culture media is aspirated from the cells and the final transfection mixture is added before the cells are incubated overnight at 37° C. in a humidified 5% CO2 atmosphere. This protocol can be scaled up, and the transiently transfected cells can be cryopreserved in an assay-ready format.
For compound testing, 100 nL of the compounds (serial dilutions in DMSO) are dispensed with an Echo acoustic dispenser (Labcyte) into the wells of a Corning/Costar clear bottom 384-well white plate. The transfected cells are harvested, counted, and diluted such that 10-25,000 cells in 25 μL are plated into each well of the 384-well compound assay plate. The compound-treated cells are incubated overnight at 37° C. in a humidified 5% CO2 atmosphere. The next morning 25 μL of Steady-Glo (Promega) are added to each well of the plate, the mixture is incubated for 15 min. with shaking, and luminescence is measured on an Envision (Perkin Elmer) plate reader.
`NS(=O)(=O)c1cccc(-c2cccc(N(CC34CCC(c5nc(C6CC6)no5)(CC3)CC4)C(=O)C34CC(F)(C3)C4)c2)c1` [Example 257, N-((4-(3-cyclopropyl-1,2,4-oxadiazol-5-yl)bicyclo[2.2.2]octan-1-yl)methyl)-3-fluoro-N-(3′-sulfamoyl-[1,1′-biphenyl]-3-yl)bicyclo[1.1.1]pentane-1-carboxamide] gave an EC50 of 521 nM.
`N#Cc1cccc(-c2cccc(N(CC34CCC(c5nc(C6CC6)no5)(CC3)CC4)C(=O)C34CC(F)(C3)C4)c2)c1` [Example 258, N-(3′-cyano-[1,1′-biphenyl]-3-yl)-N-((4-(3-cyclopropyl-1,2,4-oxadiazol-5-yl)bicyclo[2.2.2]octan-1-yl)methyl)-3-fluorobicyclo[1.1.1]pentane-1-carboxamide] showed an EC50 of 479 nM.
`O=C(N(CC12CCC(c3nc(C4CC4)no3)(CC1)CC2)c1cccc(-c2cccc(OC(F)(F)F)c2)c1)C12CC(F)(C1)C2` [Example 259, N-((4-(3-cyclopropyl-1,2,4-oxadiazol-5-yl)bicyclo[2.2.2]octan-1-yl)methyl)-3-fluoro-N-(3′-(trifluoromethoxy)-[1,1′-biphenyl]-3-yl)bicyclo[1.1.1]pentane-1-carboxamide] gave an EC50 of 268 nM.
Work on `COc1cc(-c2cccc(N(CC34CCC(c5nc(C6CC6)no5)(CC3)CC4)C(=O)C34CC(F)(C3)C4)c2)ccc1F` [Example 260, N-((4-(3-cyclopropyl-1,2,4-oxadiazol-5-yl)bicyclo[2.2.2]octan-1-yl)methyl)-3-fluoro-N-(4′-fluoro-3′-methoxy-[1,1′-biphenyl]-3-yl)bicyclo[1.1.1]pentane-1-carboxamide] yielded an EC50 of 693 nM.
For `O=C(N(CC12CCC(c3nc(C4CC4)no3)(CC1)CC2)c1cccc(-c2ccc3[nH]c(=O)oc3c2)c1)C12CC(F)(C1)C2` [Example 261, N-((4-(3-cyclopropyl-1,2,4-oxadiazol-5-yl)bicyclo[2.2.2]octan-1-yl)methyl)-3-fluoro-N-(3-(2-oxo-2,3-dihydrobenzo[d]oxazol-6-yl)phenyl)bicyclo[1.1.1]pentane-1-carboxamide], the EC50 was 48 nM.
In the case of `O=C(N(CC12CCC(c3nc(C4CC4)no3)(CC1)CC2)c1cccc(-c2cnc(C(F)(F)F)nc2)c1)C12CC(F)(C1)C2` [Example 262, N-((4-(3-cyclopropyl-1,2,4-oxadiazol-5-yl)bicyclo[2.2.2]octan-1-yl)methyl)-3-fluoro-N-(3-(2-(trifluoromethyl)pyrimidin-5-yl)phenyl)bicyclo[1.1.1]pentane-1-carboxamide], the EC50 is reported as 140 nM.
Work on `O=C(N(CC12CCC(c3nc(C4CC4)no3)(CC1)CC2)c1cccc(-c2cc(C(F)(F)F)c3ncnn3c2)c1)C12CC(F)(C1)C2` [Example 263, N-((4-(3-cyclopropyl-1,2,4-oxadiazol-5-yl)bicyclo[2.2.2]octan-1-yl)methyl)-3-fluoro-N-(3-(8-(trifluoromethyl)-[1,2,4]triazolo[1,5-a]pyridin-6-yl)phenyl)bicyclo[1.1.1]pentane-1-carboxamide] yielded an EC50 of 2710 nM.
With `COc1cc(-c2cccc(N(CC34CCC(c5nc(C6CC6)no5)(CC3)CC4)C(=O)C34CC(F)(C3)C4)c2)cn2ncnc12` [Example 264, N-((4-(3-cyclopropyl-1,2,4-oxadiazol-5-yl)bicyclo[2.2.2]octan-1-yl)methyl)-3-fluoro-N-(3-(8-methoxy-[1,2,4]triazolo[1,5-a]pyridin-6-yl)phenyl)bicyclo[1.1.1]pentane-1-carboxamide] the EC50 was 1500 nM.
`Cc1nc2c(C)cc(-c3cccc(N(CC45CCC(c6nc(C7CC7)no6)(CC4)CC5)C(=O)C45CC(F)(C4)C5)c3)cn2n1` [Example 265, N-((4-(3-cyclopropyl-1,2,4-oxadiazol-5-yl)bicyclo[2.2.2]octan-1-yl)methyl)-N-(3-(2,8-dimethyl-[1,2,4]triazolo[1,5-a]pyridin-6-yl)phenyl)-3-fluorobicyclo[1.1.1]pentane-1-carboxamide] gave an EC50 of 510 nM.
Work on `Cc1cc(-c2cccc(N(CC34CCC(c5nc(C6CC6)no5)(CC3)CC4)C(=O)C34CC(F)(C3)C4)c2)cn2ncnc12` [Example 266, N-((4-(3-cyclopropyl-1,2,4-oxadiazol-5-yl)bicyclo[2.2.2]octan-1-yl)methyl)-3-fluoro-N-(3-(8-methyl-[1,2,4]triazolo[1,5-a]pyridin-6-yl)phenyl)bicyclo[1.1.1]pentane-1-carboxamide] yielded an EC50 of 691 nM.
With `O=C(N(CC12CCC(c3nc(C4CC4)no3)(CC1)CC2)c1cccc(-c2ccc(NS(=O)(=O)C(F)(F)F)cc2)c1)C12CC(F)(C1)C2` [Example 267, N-((4-(3-cyclopropyl-1,2,4-oxadiazol-5-yl)bicyclo[2.2.2]octan-1-yl)methyl)-3-fluoro-N-(4′-((trifluoromethyl)sulfonamido)-[1,1′-biphenyl]-3-yl)bicyclo[1.1.1]pentane-1-carboxamide] the EC50 was 46 nM.
With `CC(C)S(=O)(=O)Nc1ccc(-c2cccc(N(CC34CCC(c5nc(C6CC6)no5)(CC3)CC4)C(=O)C34CC(F)(C3)C4)c2)cc1` [Example 268, N-((4-(3-cyclopropyl-1,2,4-oxadiazol-5-yl)bicyclo[2.2.2]octan-1-yl)methyl)-3-fluoro-N-(4′-((1-methylethyl)sulfonamido)-[1,1′-biphenyl]-3-yl)bicyclo[1.1.1]pentane-1-carboxamide] the EC50 was 166 nM.
Work on `O=C(N(CC12CCC(c3nc(C4CC4)no3)(CC1)CC2)c1cccc(-c2ccc(NS(=O)(=O)C3CC3)cc2)c1)C12CC(F)(C1)C2` [Example 269, N-(4′-(cyclopropanesulfonamido)-[1,1′-biphenyl]-3-yl)-N-((4-(3-cyclopropyl-1,2,4-oxadiazol-5-yl)bicyclo[2.2.2]octan-1-yl)methyl)-3-fluorobicyclo[1.1.1]pentane-1-carboxamide] yielded an EC50 of 142 nM.
With `CS(=O)(=O)Nc1ccc(-c2cccc(N(CC34CCC(c5nc(C6CC6)no5)(CC3)CC4)C(=O)C34CC(F)(C3)C4)c2)cn1` [Example 270, N-((4-(3-cyclopropyl-1,2,4-oxadiazol-5-yl)bicyclo[2.2.2]octan-1-yl)methyl)-3-fluoro-N-(3-(6-(methylsulfonamido)pyridin-3-yl)phenyl)bicyclo[1.1.1]pentane-1-carboxamide] the EC50 was 442 nM.
In the case of `O=C(N(CC12CCC(c3nc(C4CC4)no3)(CC1)CC2)c1cccc(-c2cnc(C3CC3)nc2)c1)C12CC(F)(C1)C2` [Example 271, N-((4-(3-cyclopropyl-1,2,4-oxadiazol-5-yl)bicyclo[2.2.2]octan-1-yl)methyl)-N-(3-(2-cyclopropylpyrimidin-5-yl)phenyl)-3-fluorobicyclo[1.1.1]pentane-1-carboxamide], the EC50 is reported as 23 nM.
Compound `CS(=O)(=O)Nc1ncc(-c2cccc(N(CC34CCC(c5nc(C6CC6)no5)(CC3)CC4)C(=O)C34CC(F)(C3)C4)c2)cn1` [Example 272, N-((4-(3-cyclopropyl-1,2,4-oxadiazol-5-yl)bicyclo[2.2.2]octan-1-yl)methyl)-3-fluoro-N-(3-(2-(methylsulfonamido)pyrimidin-5-yl)phenyl)bicyclo[1.1.1]pentane-1-carboxamide] has an EC50 of 559 nM.
`COCc1ccc(-c2cccc(N(CC34CCC(c5nc(C6CC6)no5)(CC3)CC4)C(=O)C34CC(F)(C3)C4)c2)cc1` [Example 273, N-((4-(3-cyclopropyl-1,2,4-oxadiazol-5-yl)bicyclo[2.2.2]octan-1-yl)methyl)-3-fluoro-N-(4′-(methoxymethyl)-[1,1′-biphenyl]-3-yl)bicyclo[1.1.1]pentane-1-carboxamide] was tested, and the EC50 was 52 nM.
Compound `COCc1ccc(-c2cccc(N(CC34CCC(c5nc(C6CC6)no5)(CC3)CC4)C(=O)C34CC(F)(C3)C4)c2)cn1` [Example 274, N-((4-(3-cyclopropyl-1,2,4-oxadiazol-5-yl)bicyclo[2.2.2]octan-1-yl)methyl)-3-fluoro-N-(3-(6-(methoxymethyl)pyridin-3-yl)phenyl)bicyclo[1.1.1]pentane-1-carboxamide] has an EC50 of 106 nM.
Compound `Cc1nc2ccc(-c3cccc(N(CC45CCC(c6nc(C7CC7)no6)(CC4)CC5)C(=O)C45CC(F)(C4)C5)c3)cc2o1` [Example 275, N-((4-(3-cyclopropyl-1,2,4-oxadiazol-5-yl)bicyclo[2.2.2]octan-1-yl)methyl)-3-fluoro-N-(3-(2-methylbenzo[d]oxazol-6-yl)phenyl)bicyclo[1.1.1]pentane-1-carboxamide] has an EC50 of 58.7 nM.
`O=C(N(CC12CCC(c3nc(C4CC4)no3)(CC1)CC2)c1cccc(-c2cnc3nc(C4CC4)sc3c2)c1)C12CC(F)(C1)C2` [Example 276, N-((4-(3-cyclopropyl-1,2,4-oxadiazol-5-yl)bicyclo[2.2.2]octan-1-yl)methyl)-N-(3-(2-cyclopropylthiazolo[4,5-b]pyridin-6-yl)phenyl)-3-fluorobicyclo[1.1.1]pentane-1-carboxamide] showed an EC50 of 77.5 nM.
